Laboratory results: US8822449B2, “Substituted aminoindanes and analogs thereof, and the pharmaceutical use thereof” (Sanofi, priority 2008, dated 2014)

Molecular target: T1, sodium-proton exchanger of subtype 3 (NHE3) (Homo sapiens, UniProt P48764)
T1 construct: expressed in transfected cells
T1 sequence (P48764 26-834): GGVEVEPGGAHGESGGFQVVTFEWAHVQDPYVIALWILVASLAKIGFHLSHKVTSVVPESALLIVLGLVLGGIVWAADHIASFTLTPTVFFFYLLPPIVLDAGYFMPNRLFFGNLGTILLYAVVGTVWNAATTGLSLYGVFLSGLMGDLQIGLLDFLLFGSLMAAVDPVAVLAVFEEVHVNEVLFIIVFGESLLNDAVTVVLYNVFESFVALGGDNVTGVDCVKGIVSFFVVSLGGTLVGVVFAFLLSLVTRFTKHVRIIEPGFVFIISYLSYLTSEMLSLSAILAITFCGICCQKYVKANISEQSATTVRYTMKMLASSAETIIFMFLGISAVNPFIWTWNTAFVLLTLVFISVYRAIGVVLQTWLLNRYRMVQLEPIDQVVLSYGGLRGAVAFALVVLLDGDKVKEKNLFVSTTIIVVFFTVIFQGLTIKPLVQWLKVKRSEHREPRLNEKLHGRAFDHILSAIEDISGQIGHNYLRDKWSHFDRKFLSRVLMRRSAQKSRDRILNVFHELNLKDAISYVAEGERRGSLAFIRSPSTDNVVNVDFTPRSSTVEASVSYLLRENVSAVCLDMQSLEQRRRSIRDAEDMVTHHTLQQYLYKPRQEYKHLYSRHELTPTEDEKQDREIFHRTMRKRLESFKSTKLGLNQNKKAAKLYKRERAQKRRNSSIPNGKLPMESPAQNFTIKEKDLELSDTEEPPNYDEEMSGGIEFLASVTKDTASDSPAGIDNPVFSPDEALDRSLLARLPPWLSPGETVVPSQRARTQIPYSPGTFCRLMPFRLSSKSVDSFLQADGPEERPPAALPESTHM
Assay: Recovery of intracellular pH (pHi) after acidification in LAP1 cells stably expressing NHE3 (BCECF fluorescence, FLIPR)
Assay type: cell-based
Settings: LAP1 cells stably expressing NHE3; pH recovery after acidification; range 1 is % inhibition at 10 μM; read-out: Activity range (inhibitory effect on NHE3)

Row | SMILES | IC50 [nM] | inhibition at 10 µM [%]
1 | Cc1cc(O[C@H]2c3cc(F)cc(Cl)c3C[C@@H]2N2CCNCC2)ccc1S(C)(=O)=O (racemic) [Example 281, 1-[rac-trans-(1,2)-4-chloro-6-fluoro-1-(4-methanesulfonyl-3-methylphenoxy)indan-2-yl]piperazine] | < 1000 | 
2 | N#Cc1ccc(-c2ccc(O[C@H]3c4ccccc4CC[C@@H]3N3CCC[C@@H](N)C3)cc2)cc1 (racemic) [Example 517, 4′-[rac-trans-(1,2)-2-((R)-3-aminopiperidin-1-yl)-1,2,3,4-tetrahydronaphthalen-1-yloxy]-biphenyl-4-carbonitrile] |  | 20 to 50
3 | CC(=O)Nc1cccc(O[C@H]2c3cccc(F)c3C[C@@H]2N2CCCC2)c1 (racemic) [Example 652, N-[3-(rac-trans-(1,2)-4-fluoro-2-pyrrolidin-1-ylindan-1-yloxy)phenyl]acetamide] | 1000 to 10000 | 
4 | N[C@H]1CCCN([C@H]2CCc3ccccc3[C@@H]2Oc2ccc(F)cc2F)C1 (racemic) [Example 149, (S)-1-[rac-trans-(1,2)-1-(2,4-difluorophenoxy)-1,2,3,4-tetrahydronaphthalen-2-yl]piperidin-3-ylamine] |  | 20 to 50
5 | CN(c1ccc(O[C@H]2c3cc(Cl)cc(Cl)c3C[C@@H]2N2CC[C@@H](O)C2)cc1)S(C)(=O)=O [Example 698, N-{4-[(1S,2S)-4,6-dichloro-2-((R)-3-hydroxypyrrolidin-1-yl)indan-1-yloxy]phenyl}-N-methylmethanesulfonamide] | < 1000 | 
6 | Cc1nnc(C)n1-c1ccc(O[C@H]2c3ccccc3C[C@@H]2N2CCCC2)c(Cl)c1 (racemic) [Example 490, 4-[3-chloro-4-(rac-trans-(1,2)-2-pyrrolidin-1-ylindan-1-yloxy)phenyl]-3,5-dimethyl-4H-[1,2,4]triazole] | < 1000 | 
7 | N[C@@H]1CCCN([C@H]2CCc3ccccc3[C@@H]2Oc2ccc(Cl)cc2-c2cc[nH]n2)C1 (racemic) [Example 119, (R)-1-{rac-trans-(1,2)-1-[4-chloro-2-(1H-pyrazol-3-yl)phenoxy]-1,2,3,4-tetrahydronaphthalen-2-yl}piperidin-3-ylamine] | < 1000 | 
8 | N#Cc1cc(Cl)ccc1O[C@H]1c2ccccc2CC[C@@H]1N1CCOCC1 (racemic) [Example 585, 5-chloro-2-(rac-trans-(1,2)-2-morpholin-4-yl-1,2,3,4-tetrahydronaphthalen-1-yloxy)benzonitrile] |  | 20 to 50
9 | NC1CCN([C@@H]2Cc3ccccc3[C@H]2Oc2ccc(S(N)(=O)=O)c(Cl)c2Cl)C1 (mixture of isomers) [Example 542, 4-[rac-trans-(1,2)-2-(3-aminopyrrolidin-1-yl)indan-1-yloxy]-2,3-dichlorobenzenesulfonamide] | < 1000 | 
10 | N[C@H]1CCCN([C@H]2CCc3ccccc3[C@@H]2Oc2cnc3ccccc3c2)C1 (racemic) [Example 192, (S)-1-[rac-trans-(1,2)-1-(quinolin-3-yloxy)-1,2,3,4-tetrahydronaphthalen-2-yl]piperidin-3-ylamine] |  | 20 to 50
11 | c1ccc2c(c1)C[C@@H](N1C[C@H]3CNC[C@H]3C1)[C@@H]2Oc1ccc(-n2ccnc2)cc1 (racemic) [Example 7, 2-[rac-trans-(1,2)-1-(4-imidazol-1-ylphenoxy)indan-2-yl]octahydropyrrolo[3,4-c]pyrrole] | 1000 to 10000 | 
12 | Cc1nnc(C)n1-c1ccc(O[C@H]2c3cc(Cl)cc(Cl)c3C[C@@H]2N2CC[C@@](C)(O)C2)cc1 (racemic) [Example 111, (R)-1-{(1S,2S)-4,6-dichloro-1-[4-(3,5-dimethyl-[1,2,4]triazol-4-yl)phenoxy]indan-2-yl}-3-methylpyrrolidin-3-ol] | < 1000 | 
13 | NCC1CCN([C@@H]2Cc3ccccc3[C@H]2Oc2ccc(Br)cc2-c2cc[nH]n2)CC1 (racemic) [Example 599, C-(1-{rac-trans-(1,2)-1-[4-bromo-2-(1H-pyrazol-3-yl)phenoxy]indan-2-yl}piperidin-4-yl)methylamine] | 1000 to 10000 | 
14 | CCc1ccc(O[C@@H]2c3ccccc3C[C@H]2N2CCC(CN)CC2)c(C(C)(C)C)c1 (racemic) [Example 609, C-{1-[rac-trans-(1,2)-1-(2-tert-butyl-4-ethylphenoxy)indan-2-yl]piperidin-4-yl}methylamine] | 1000 to 10000 | 

Other lines, results leading:

Row | IC50 [nM] | inhibition at 10 µM [%] | SMILES
15 | < 1000 |  | Cc1nnc(C)n1-c1ccc(O[C@H]2c3cc(Cl)cc(Cl)c3C[C@@H]2N2CCCNCC2)c(Cl)c1 [Example 344, 1-{trans-(1S,2S)-4,6-dichloro-1-[2-chloro-4-(3,5-dimethyl-[1,2,4]triazol-4-yl)phenoxy]indan-2-yl}-[1,4]diazepane]
16 |  | 20 to 50 | O[C@@H]1CCN([C@H]2Cc3c(Cl)cc(Cl)cc3[C@@H]2Oc2ccc(F)cc2-c2ccn[nH]2)C1 [Example 137, (R)-1-{trans-(1S,2S)-4,6-dichloro-1-[4-fluoro-2-(2H-pyrazol-3-yl)phenoxy]indan-2-yl}pyrrolidin-3-ol]
17 | < 1000 |  | Cc1nnc(C)n1-c1ccc(O[C@H]2c3cc(Cl)cc(Cl)c3C[C@@H]2N2CC[C@H](N)C2)cc1 [Example 207, (S)-1-{trans-(1S,2S)-4,6-dichloro-1-[4-(3,5-dimethyl-[1,2,4]triazol-4-yl)phenoxy]indan-2-yl}pyrrolidin-3-ylamine]
18 | 1000 to 10000 |  | CC(=O)Nc1cccc(O[C@@H]2c3ccccc3C[C@H]2N2C[C@H]3CNC[C@H]3C2)c1 (racemic) [Example 674, N-{3-[rac-trans-(1,2)-2-(hexahydropyrrolo[3,4-c]pyrrol-2-yl)indan-1-yloxy]phenyl}acetamide]
19 |  | 20 to 50 | Cc1noc(C)c1-c1ccc(O[C@H]2c3cc(Cl)cc(Cl)c3C[C@@H]2N2CC[C@@H](O)C2)cc1 [Example 135, (R)-1-{trans-(1S,2S)-4,6-dichloro-1-[4-(3,5-dimethylisoxazol-4-yl)phenoxy]indan-2-yl}pyrrolidin-3-ol]
20 |  | 20 to 50 | COc1ccc(C)cc1O[C@H]1c2ccccc2CC[C@@H]1N1CCC[C@H](N)C1 (racemic) [Example 157, (S)-1-[rac-trans-(1,2)-1-(2-methoxy-5-methylphenoxy)-1,2,3,4-tetrahydronaphthalen-2-yl]piperidin-3-ylamine]
21 | < 1000 |  | Cn1ccn(-c2ccc(F)c(O[C@H]3c4cc(Cl)cc(Cl)c4C[C@@H]3N3CC[C@@H](O)C3)c2)c1=O [Example 313, 1-{3-[(1S,2S)-4,6-dichloro-2-((R)-3-hydroxypyrrolidin-1-yl)indan-1-yloxy]-4-fluorophenyl}-3-methyl-1,3-dihydroimidazol-2-one]
22 | 1000 to 10000 |  | N#Cc1cc(Cl)ccc1O[C@@H]1c2ccccc2C[C@H]1N1CCC(CN)CC1 (racemic) [Example 376, 2-[rac-trans-(1,2)-2-(4-aminomethylpiperidin-1-yl)indan-1-yloxy]-5-chlorobenzonitrile]
23 | 1000 to 10000 |  | CS(=O)(=O)c1ccc(O[C@H]2c3cc(Cl)cc(Cl)c3C[C@@H]2NC2CCCC2)cc1 [Example 747, Cyclopentyl-[trans-(1S,2S)-4,6-dichloro-1-(4-methanesulfonyl-phenoxy)-indan-2-yl]-amine]
24 | < 1000 |  | CS(=O)(=O)c1ccc(O[C@H]2c3cc(Cl)cc(Cl)c3C[C@@H]2N2CCCNCC2)cc1 [Example 298, 1-[trans-(1S,2S)-4,6-dichloro-1-(4-methanesulfonylphenoxy)indan-2-yl]-[1,4]diazepane]
